Source: US20170209499A1, “Propolis and Extracts Thereof for the Treatment of Skin Cancers and Improvement of Skin Health” (Manuka Health New Zealand Limited, priority 2014, published 2017)

Tested on: human melanoma cell line A-2058
Experiment: MTT cell proliferation assay, human melanoma cell line A-2058
Format: cell-based
Settings: for Mean OD: MTT Optical Density at 570 nm
Excerpt: This example describes the in vitro bioassay used for determining the anti-proliferative activity of test compounds and cyclodextrin-encapsulated propolis complexes against human skin cancer cell lines. The present example tests anti-proliferative efficacy against the human melanoma cell line, A-2058. The cyclodextrin-encapsulated propolis complexes tested are those described in Example 1. The NZ propolis was the same propolis used to manufacture the cyclodextrin complexes CD1-CD3. The Brazilian Green propolis was the same propolis used to manufacture the cyclodextrin complex CD4. The test samples were dissolved in 15% Ethanol (EtOH)/HBSS to make a working solution, which was then diluted 10 times to give a final concentration in the cells of 50 μg/ml unless indicated otherwise.
The three human skin cancer cell lines were: • 1) Human Melanoma cell line (A-2058). • 2) Human Epidermoid (Squamous) Carcinoma cell line (A-431). • 3) Human Basal Cell Carcinoma cell line (TE 354.T).
The cell lines were revived from cryostorage and cultured in the presence of the test and reference samples. An MIT assay was then performed on the cultures to determine the effect of the samples on the cell viability and proliferation. The percentage standard error of the mean was assessed and extreme outliers were removed if the SEM%>15. Preliminary statistical significance was assessed with an independent Student t-test at α<0.05 (with and without outliers). The methodology was based on the procedures reported by: • Ahn, N G, Campbell J S (1993). […] Proc Natl Acad Sci. 90: 5143-5147. • Galan-Cobo, A et al (2014). Functional inhibition of aquaporin-3 with a gold-based compound induces blockage of cell proliferation. J Cellul. Physiol. 229: 1787-1801. • Roomi, M W, Kalinovsky, J et al (2013) Effect of a nutrient mixture on matrix metalloproteinase-9 dimers in various human cancer cell lines. Inter 3 Oncol. 44: 936-942. • Huang, H C, Lin, M K et al (2013). Cardenolides and bufadienolide glycosides from Kalanchoe tubiflora and evaluation of cytotoxicity. Planta Medica. 79: 1362-1369. • Tilli, C M L J, Stavast-Kooy, A J W et al (2003). The garlic-derived organosulfur component ajoene decreases basal cell carcinoma tumor size by inducing apoptosis. Arch Dermatol Res. 295: 117-123.
• 1. Human melanoma cell line (A-2058, ATCC CRL11147) was obtained from ATCC, Bethesda, Md., USA. • 2. Human squamous (epidermoid) carcinoma cell line (A-431, ATCC CRL1555) was obtained from ATCC, Bethesda, Md. USA. • 3. Human basal cell carcinoma cell line (TE 354.T, ATCC CRL7762) was obtained from ATCC, Bethesda, Md., USA. • 4. Dulbecco's Modified Eagle's Medium (DMEM) was obtained from GIBCO (12100-038). 10% Foetal Bovine Serum (FBS), 100 U/ml Penicillin and […] Streptomycin were added before use. • 5. Penicillin-streptomycin solution, stored at −20° C. consisting of 10000 units/ml penicillin and 10 mg/ml streptomycin in 0.9% NaCl was obtained from Sigma (#P-0781). • 6. Trypsin-EDTA solution consisting of 0.25% Trypsin/EDTA was obtained from Invitrogen (#15400054). • 7. Phosphate buffered saline (PBS) was prepared in-house. • 8. Hanks Balanced Salt Solution (HBSS), stored at 4° C. was obtained from GIBCO (#14185-052). • 9. Foetal Bovine Serum (FBS) stored at −20° C. was obtained from GIBCO (#10091-148). • 10. MTT Reagent, 100 mg/vial, was obtained from Sigma (M-2128) and then dissolved in PBS at 10 mg/ml and stored at −20° C. A 5 mg/ml MTT solution was prepared in PBS and stored at 4° C. as the working solution. • 11. MU lysis buffer: 10% sodium dodecyl sulphate (SDS)/45% Dimethyl Formamide was prepared by dissolving 20 g SDS in 100 ml of double-distilled water (DDW), and then adding 90 ml of Dimethyl Formamide to the solution. The pH was adjusted to 4.7 by glacial acetic acid, and DDW added up to a final volume of 200 ml. • 12. 5-Fluorouracil (5-FU) was supplied by Sigma (F-6627). Three working solutions were prepared at 19.5 μg/ml. 6.5 μg/ml and 1.95 μg/ml dissolved in 15% Ethanol/HBSS. […]

O=c1[nH]cc(F)c(=O)[nH]1 [5-fluorouracil, reference compound]
Mean OD (A-2058, 0.195 μg/ml): 0.1937
Mean OD (A-2058, 0.65 μg/ml): 0.1832
Mean OD (A-2058, 1.95 μg/ml): 0.1847
inhibition at 0.195 µg/mL (Homo sapiens, A2058, 24 h, A-2058, final conc. 0.195 μg/ml, 24 hr incubation, vs cells only): 3.73%
inhibition at 0.65 µg/mL (Homo sapiens, A2058, 24 h, A-2058, final conc. 0.65 μg/ml, 24 hr incubation, vs cells only): 8.99%
inhibition at 1.95 µg/mL (Homo sapiens, A2058, 24 h, A-2058, final conc. 1.95 μg/ml, 24 hr incubation, vs cells only): 8.25%
